One series relates to Sprague-Dawley rats. In words: Intrathecal injection of isoflurane or sevoflurane, hotplate test (thermal withdrawal latency). The format is in vivo, rat. The following applies: for Thermal withdrawal latency, Average (per rat): average of three tests, both paws; for Thermal withdrawal latency, Group Average: four rats; for Thermal withdrawal latency, Test 1 Left / Thermal withdrawal latency, Test 1 Right / Thermal withdrawal latency, Test 2 Left / Thermal withdrawal latency, Test 2 Right / Thermal withdrawal latency, Test 3 Left / Thermal withdrawal latency, Test 3 Right: individual rats, cutoff 25 seconds; for Adverse effects / Full recovery from the intrathecal injection (return to thermal latency baseline): intrathecal 2 microliters, rats; for Analgesic effect: intrathecally delivered dose of 2 microliters. On the procedure:
This study was designed to evaluate efficacy of direct intrathecal injection of anesthetic agent gases in reducing pain and providing analgesia. The study was conducted over a one (1) month period using anesthetic gases isoflurane and sevoflurane injected directly intrathecally or dissolved in saline as shown in the studies below. The subject animal used was the rat, since the rat has a well-established model of pain/analgesia testing. In particular, Sprague-Dawley rats weighing over 350gm were used. The rats were anesthetized with pentobarbital (50mg/kg), and the anesthetic depth of the animals was determined by corneal reflex and paw withdrawal reflex to a noxious stimulus.
[…]. A midline surgical dissection of the posterior neck muscles was performed to obtain access to the occipito-atlantoid membrane. This membrane was identified and then dissected. A sterile polyethylene catheter was introduced in the subarachnoid space until the lumbar enlargement of the spinal cord (approximately 7-8 cm measured in each animal). The surgical wound was closed, first suturing the neck muscles with 3-0 silk sutures and then closing the skin incision with staples.
After the surgery, the rats were moved to their cages and a radiant lamp was placed over the cages so that the rats would not undergo anesthetic-induced hypothermia. The rats were continuously monitored from the end of the surgery until they were fully awake. Rats showing any motor impairment after surgery were euthanized.
On the fifth day after surgery, those rats without wound infection or motor dysfunction were transported to the pain behavioral lab to enter the intrathecal study with volatile anesthetics. Twelve rats were selected for the study. All these rats had intrathecal catheters.
Isoflurane (1-chloro-2,2,2-trifluoroethyl difluoromethyl ether) and sevoflurane (fluoromethyl 2,2,2-trifluoro-1-(trifluoromethyl) ethyl ether) were used as the halogenated ether compounds. Both of these are halogenated volatile anesthetic agents, with isoflurane manufactured by Baxter and sevoflurane manufactured by Abbott Laboratories. The 12 rats were divided into 3 groups of four rats each for study A and B.
In the first group, 2 microliters of preservative-free normal saline was injected via the intrathecal catheter into each rat. This catheter was then flushed with preservative-free normal saline. Pain behavioral testing on this group was then performed.
In the second group, 2 microliters of isoflurane was injected via the intrathecal catheter into each rat. This catheter was also flushed with preservative-free normal saline. This group was then subjected to pain behavioral testing.
In the third group, 2 microliters of sevoflurane was injected via the intrathecal catheter into each rat. This catheter was also flushed with preservative-free normal saline. This group was then subjected to pain behavioral testing.
A “hotplate” behavioral test was used to evaluate pain perception and analgesia. The pain behavioral testing model used in these studies have been well established by Tony Yaksh. (See, e.g. Chaplan et al., 1994; Yaksh et al., 2001; Kim and Chung, 1992; Sorkin et al., 2001). This test involves determining how quickly a rat will withdraw its hind paw in response to a noxious stimulus such as a radiant heat source placed directly underneath its paw. This time for withdrawal is known as “thermal withdrawal latency”.
Rats were transferred for testing onto a modified Hargreaves apparatus with a heated glass plate maintained at 25° C. (see Hargreaves et al., 1988). A focused projection bulb below the plate was aimed at the mid-plantar surface of the paw. A photodiode-activated timer measured the withdrawal latency, and a cutoff time of 25 seconds was used to prevent tissue damage. Thermal withdrawal latency to radiant heat was measured at 5 minutes and 30 minutes after each intrathecal injection. Each paw was tested three times, and the results were averaged. […]

Series [1] is described as follows: Stability/volatility: weighing remaining isoflurane in uncapped vials over time. The following applies: for Effect of the solvent on the volatility of isoflurane: solution versus pure isoflurane (Table 6). Format: physicochemical. Here is the method:
The stability of isoflurane in the compositions was determined in two ways. Firstly, the compositions were examined for the presence of phase separation at the macroscopic level. Secondly, isoflurane content of the compositions were determined by weighing the remaining isoflurane in the composition when they were left uncapped over time. […] The other vials received varying amounts of isoflurane. They were left uncapped in the hood. Over time (0, 0.4, 1 , 16 , 24 h), the vials were weighed to see if the isoflurane stayed in the composition or evaporated. The amount evaporated over time in the vehicle was subtracted from that in the isoflurane composition, and therefore the amount of isoflurane in the vehicle was roughly determined at each time point.
Pure form of isoflurane is a volatile agent. In order to determine the volatility of isoflurane, two vials received the indicated amounts of pure form of isoflurane. The vials were placed in the chemical fume hood and left uncapped. The vials were weighed in the indicated times to determine the amount of evaporated isoflurane. As it is shown in the table below 0.7893g isoflurane was evaporated within 3 hrs whereas 3.4825 g isoflurane took approximately 8 hrs to evaporate completely. These amounts of isoflurane are similar to the amounts of isoflurane that were used to prepare isoflurane (iso) compositions as shown below.

The subject of another series is rats. Kind of series: Plantar Heat Stimulation Test (paw withdrawal latency) after subcutaneous injection into hindpaw. The following applies: for Antinociceptive effect, treated versus untreated (contralateral) paw: 100 μl subcutaneously into hindpaw (pure isoflurane n=4; 2% lidocaine n=3), P<0.05. The format is in vivo, rat. Here is the method:
Intraplanar Administration of Isoflurane: 100 μl of pure form Isoflurane or 100 μl of 2% Lidocaine was injected subcutaneously into the planar surface of the hindpaw. Every rat, the contralateral hindpaw, served as its own control.
Measurement of Paw Withdrawal Latency: Rats are tested for response to thermal stimulation using radiant heat (Planar Analgesia Instrument, UgoBasile, Italy). After the rats acclimate for 15 min under the acrylic boxes that allow minimal movement, the heat source was positioned beneath the mid-plantar surface of the hind paw. Withdrawal latency is defined as the period of time from the beginning of the thermal stimulation to the brisk withdrawal of the hind paw. To avoid tissue damage, a cutoff time of 22s was set. Thermal stimulation was applied three times to each hind paw at an inter-stimulus interval of 3-5 min. Thermalnociceptive threshold was assessed before and after the treatment. An increase in the withdrawal threshold in the treated paw compared to the control paw is assessed as analgesic activity of the tested formulation.
Statistical Analysis: For statistical comparison, student paired t-test analysis was used. Differences were considered significant at P<0.05.

Where [2] appears, read: 5 minutes after 2 microliters intrathecal.
The mark [3] stands for this setting: 5 minutes after 2 microliters intrathecal, saline control group 8.33.
The mark [4] stands for this setting: 30 minutes after 2 microliters intrathecal.
Where [5] appears, read: 30 minutes after 2 microliters intrathecal, saline control group 8.40.
Setting [6] is: 100 μl subcutaneously into hindpaw.

Several values for one entry are separate records, joined by “and”; a condition that tells them apart may be missing. Equal values may be shown once.

Turning to `FC(F)OC(Cl)C(F)(F)F` (stereo not drawn) [Isoflurane, 1-chloro-2,2,2-trifluoroethyl difluoromethyl ether], in the series with Sprague-Dawley rats (setting [2]), the “Thermal withdrawal latency, Average (per rat)” value was 19.25 s and 18.21 s and 18.63 s and 17.95 s; the “Thermal withdrawal latency, Test 1 Left” value was 17.23 s and 19.24 s and 18.11 s and 19.71 s; the “Thermal withdrawal latency, Test 1 Right” value is 19.81 s and 17.19 s and 19.20 s and 20.31 s; the “Thermal withdrawal latency, Test 2 Left” value was 18.91 s and 17.65 s and 19.80 s and 17.18 s. For the same molecule, in the series on Sprague-Dawley rats (setting [2]), the “Thermal withdrawal latency, Test 2 Right” value is 20.38 s and 15.88 s and 17.90 s and 18.34 s; the “Thermal withdrawal latency, Test 3 Left” value was 18.82 s and 20.72 s and 20.07 s and 16.38 s; the “Thermal withdrawal latency, Test 3 Right” value is 20.34 s and 18.59 s and 16.71 s and 16.75 s. Further, in the series with Sprague-Dawley rats (setting [3]), the “Thermal withdrawal latency, Group Average” value was 18.51 s. For the same molecule, in the series with Sprague-Dawley rats (setting [4]), the “Thermal withdrawal latency, Average (per rat)” value was 9.48 s and 8.93 s and 10.52 s and 9.21 s; the “Thermal withdrawal latency, Test 1 Left” value was 9.12 s and 6.35 s and 8.37 s and 10.27 s; the “Thermal withdrawal latency, Test 1 Right” value is 9.87 s and 9.08 s and 6.32 s and 9.41 s; the “Thermal withdrawal latency, Test 2 Left” value is 9.02 s and 8.22 s and 8.45 s and 7.04 s. Also, in the series with Sprague-Dawley rats (setting [4]), the “Thermal withdrawal latency, Test 2 Right” value is 10.59 s and 7.81 s and 9.48 s and 6.76 s; the “Thermal withdrawal latency, Test 3 Left” value was 9.77 s and 11.62 s and 10.48 s and 10.32 s; the “Thermal withdrawal latency, Test 3 Right” value is 8.54 s and 10.49 s and 11.03 s and 7.88 s. The “Thermal withdrawal latency, Group Average” value in the series on Sprague-Dawley rats (setting [5]) was determined as 9.53 s. Further, in the series with Sprague-Dawley rats, the Adverse effects result is on record as “None of the rats in the study experienced adverse effects”, the “Full recovery from the intrathecal injection (return to thermal latency baseline)” value turned out to be 30 min and the Analgesic effect entry is recorded as “analgesic effect”. Also, in series [1] (0 h), the “% remaining iso, 0 h” value was found to be 100%. Besides, the “Time for isoflurane to evaporate” value in series [1] (0.7893 g pure isoflurane, uncapped) is at most 3 h. Further, in series [1] (3.4825 g pure isoflurane, uncapped), the “Time for isoflurane to evaporate completely” value is reported as “approximately 8 hrs”. Further, the “% remaining iso, 5 h” value in series [1] (5 h) amounted to 38%. Besides, the “% remaining iso, 7 h” value in series [1] (7 h) is on record as 13%. The “% remaining iso, 8 h” value in series [1] (8 h) worked out at 3%. Besides, in the series with rats (setting [6]), the “Duration of the antinociceptive effect” value is “continued throughout the experiment” and the “Start of the antinociceptive effect” value is 25 min. Besides, the “Antinociceptive effect, treated versus untreated (contralateral) paw” value with rats is given as “significant (P<0.05) antinociceptive effect”.
`CN1CCCC1=O` [NMP, N-Methyl-2-pyrrolidone]: the “Effect of the solvent on the volatility of isoflurane” value in series [1] is recorded as “reduced the volatility of isoflurane”.
Turning to `FCOC(C(F)(F)F)C(F)(F)F` [Sevoflurane, fluoromethyl 2,2,2-trifluoro-1-(trifluoromethyl) ethyl ether], in the series on Sprague-Dawley rats (setting [2]), the “Thermal withdrawal latency, Average (per rat)” value is 14.65 s and 13.82 s and 13.14 s and 12.98 s; the “Thermal withdrawal latency, Test 1 Left” value is 14.90 s and 13.38 s and 12.34 s and 11.83 s; the “Thermal withdrawal latency, Test 1 Right” value is 13.81 s and 17.19 s and 14.98 s and 10.31 s; the “Thermal withdrawal latency, Test 2 Left” value was 15.11 s and 12.31 s and 11.03 s and 12.66 s. Besides, in the series with Sprague-Dawley rats (setting [2]), the “Thermal withdrawal latency, Test 2 Right” value was 13.23 s and 14.29 s and 13.93 s and 13.20 s; the “Thermal withdrawal latency, Test 3 Left” value is 14.83 s and 12.01 s and 14.16 s and 12.31 s; the “Thermal withdrawal latency, Test 3 Right” value was 16.03 s and 13.75 s and 12.37 s and 17.59 s. Also, the “Thermal withdrawal latency, Group Average” value in the series on Sprague-Dawley rats (setting [3]) was 13.65 s. Besides, in the series with Sprague-Dawley rats (setting [4]), the “Thermal withdrawal latency, Average (per rat)” value was 8.61 s and 8.35 s and 8.89 s and 9.54 s; the “Thermal withdrawal latency, Test 1 Left” value was 8.54 s and 6.87 s and 8.44 s and 10.93 s; the “Thermal withdrawal latency, Test 1 Right” value was 9.23 s and 7.38 s and 10.05 s and 9.55 s; the “Thermal withdrawal latency, Test 2 Left” value is 8.29 s and 7.99 s and 11.74 s and 6.68 s. In the series with Sprague-Dawley rats (setting [4]), the “Thermal withdrawal latency, Test 2 Right” value was 7.30 s and 8.92 s and 9.32 s and 8.67 s; the “Thermal withdrawal latency, Test 3 Left” value was 8.87 s and 8.10 s and 6.13 s and 12.11 s; the “Thermal withdrawal latency, Test 3 Right” value is 9.43 s and 10.83 s and 7.66 s and 9.27 s. The “Thermal withdrawal latency, Group Average” value with Sprague-Dawley rats (setting [5]) worked out at 8.84 s. Moreover, in the series on Sprague-Dawley rats, the Adverse effects result is “None of the rats in the study experienced adverse effects”, the “Full recovery from the intrathecal injection (return to thermal latency baseline)” value was found to be 30 min and the Analgesic effect entry is “analgesic effect”.
`CCN(CC)CC(=O)Nc1c(C)cccc1C` [lidocaine]: in the series on rats (setting [6]), the “Peak of the antinociceptive effect” value stood at 15 min, the “Return of the antinociceptive effect to baseline levels” value worked out at 45 min and the “Start of the antinociceptive effect” value worked out at 5 min. The “Antinociceptive effect, treated versus untreated (contralateral) paw” value in the series with rats is given as “significant antinociceptive effect”.
With `CC(O)CO` (stereo not drawn) [propylene glycol], in series [1] (Table 10 versus Table 8), the “Reduction of isoflurane volatility compared with NMP” value was “not as good as NMP”. The “Effect of the solvent on the volatility of isoflurane” value in series [1] was “reduced the volatility of isoflurane”.
